In ChEMBL document CHEMBL5154871, “Non-peptidyl non-covalent cathepsin C inhibitoEEr bearing a unique thiophene-substituted pyridine: Design, structure-activity relationship and anti-inflammatory activity in vivo” (Eur J Med Chem, 2022):
Calls of active or inactive are those of the source. No cut-off for these calls is given here.

What was measured:
[1] = tested on: Mus musculus; assay: In vivo inhibition of cathepsin C in po dosed LPS-induced ALI C57BL/6 mouse model assessed as downregulation of PR3 activity in bone marrow treated 1 hr prior to LPS challenge and measured after 48 hrs; type: functional, organism-based; details: dose 2-50 mg/kg, time 49.0 hrs, DDE = dose-dependent effect
[2] = molecular target: T1, Dipeptidyl peptidase 1 (Mus musculus) (UniProt P97821); assay: Inhibition of Cathepsin C in C57BL/6 mouse Bone marrow cells assessed as reduction of NSPs stability by measuring stability of protease 3 at 1 uM treated for 6 hrs by Western blotting analysis; type: cell-based; design: scale not given: the % may be the effect or the level left; details: Bone marrow cell
T1 sequence (whole entry): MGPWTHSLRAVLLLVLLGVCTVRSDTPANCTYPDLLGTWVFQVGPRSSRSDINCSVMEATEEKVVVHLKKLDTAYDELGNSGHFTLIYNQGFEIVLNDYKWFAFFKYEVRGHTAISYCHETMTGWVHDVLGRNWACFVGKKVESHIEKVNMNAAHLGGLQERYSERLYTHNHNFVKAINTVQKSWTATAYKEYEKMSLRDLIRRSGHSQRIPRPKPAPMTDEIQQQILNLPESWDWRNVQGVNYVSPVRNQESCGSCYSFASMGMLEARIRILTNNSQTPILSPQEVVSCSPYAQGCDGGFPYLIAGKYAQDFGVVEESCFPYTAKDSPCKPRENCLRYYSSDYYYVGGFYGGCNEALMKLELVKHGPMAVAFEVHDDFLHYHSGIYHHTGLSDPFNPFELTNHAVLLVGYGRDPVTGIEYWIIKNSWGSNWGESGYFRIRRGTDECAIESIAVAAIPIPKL

[3] = molecular target: T1, Dipeptidyl peptidase 1 (Mus musculus); assay: Inhibition of Cathepsin C in C57BL/6 mouse Bone marrow cells assessed as reduction of NSPs stability by measuring stability of neutrophil elastase at 1 uM treated for 12 hrs by Western blotting analysis; type: cell-based; design: scale not given: the % may be the effect or the level left; details: Bone marrow cell
[4] = tested on: Mus musculus; assay: In vivo inhibition of cathepsin C in po dosed LPS-induced ALI C57BL/6 mouse model assessed as downregulation of neutrophil elastase activity in bone marrow treated 1 hr prior to LPS challenge and measured after 48 hrs; type: functional, organism-based; details: dose 2-50 mg/kg, time 49.0 hrs, DDE = dose-dependent effect
[5] = tested on: Mus musculus; assay: Anti-inflammatory activity against po dosed LPS-induced ALI C57BL/6 mouse model assessed as decrease in histopatological changes of lungs treated 1 hr prior to LPS challenge and measured after 48 hrs by H and E staining based analysis; type: functional, organism-based; details: dose 2-50 mg/kg, time 49.0 hrs, DDE = dose-dependent effect
[6] = molecular target: T1, Dipeptidyl peptidase 1 (Mus musculus); assay: Inhibition of Cathepsin C in C57BL/6 mouse Bone marrow cells assessed as reduction of NSPs stability by measuring stability of cathepsin G at 1 uM treated for 48 hrs by Western blotting analysis; type: cell-based; design: scale not given: the % may be the effect or the level left; details: Bone marrow cell
[7] = tested on: Mus musculus; assay: Anti-inflammatory activity against po dosed LPS-induced ALI C57BL/6 mouse model assessed as decrease in GM-CSF level in lungs treated 1 hr prior to LPS challenge and measured after 48 hrs by ELISA; type: functional, organism-based; details: dose 2-50 mg/kg, time 49.0 hrs, DDE = dose-dependent effect
[8] = molecular target: Cathepsin B (Homo sapiens, UniProt P07858); assay: Inhibition of human recombinant Cathepsin B using Z-Leu-Arg-AMC as substrate pretreated for 60 mins followed by substrate addition and incubated for 30 mins by microplate reader assay
[9] = tested on: Mus musculus; assay: Anti-inflammatory activity against po dosed LPS-induced ALI C57BL/6 mouse model assessed as decrease in IL-6 level in serum treated 1 hr prior to LPS challenge and measured after 48 hrs by ELISA; type: functional, organism-based; details: dose 2-50 mg/kg, time 49.0 hrs, DDE = dose-dependent effect
[10] = Acute toxicity in ICR mouse assessed as pathological changes of kidney at 1500 mg/kg, po administered as single dose measured after 7 days by H and E staining based assay; type: organism-based; details: in vivo, time 7 day
[11] = molecular target: T1, Dipeptidyl peptidase 1 (Mus musculus); assay: Inhibition of Cathepsin C in C57BL/6 mouse Bone marrow cells assessed as reduction of NSPs stability by measuring stability of Cat G at 1 uM treated for 6 hrs by Western blotting analysis; type: cell-based; design: scale not given: the % may be the effect or the level left; details: Bone marrow cell
[12] = tested on: Mus musculus; assay: Anti-inflammatory activity against po dosed LPS-induced ALI C57BL/6 mouse model assessed as decrease in GM-CSF level in serum treated 1 hr prior to LPS challenge and measured after 48 hrs by ELISA; type: functional, organism-based; details: dose 2-50 mg/kg, time 49.0 hrs, DDE = dose-dependent effect
[13] = Cmax in Sprague-Dawley rat at 2 mg/kg, iv measured after 24 hrs by LC-MS/MS analysis; type: ADME, organism-based; design: time 24 hrs, dose 2 mg/kg, route iv; details: in vivo
[14] = tested on: Mus musculus; assay: Anti-inflammatory activity against po dosed LPS-induced ALI C57BL/6 mouse model assessed as increase in IL-10 level in serum treated 1 hr prior to LPS challenge and measured after 48 hrs by ELISA; type: functional, organism-based; details: dose 2-50 mg/kg, time 49.0 hrs, DDE = dose-dependent effect
[15] = tested on: Mus musculus; assay: Anti-inflammatory activity against po dosed LPS-induced ALI C57BL/6 mouse model assessed as decrease in MPO activity in lungs treated 1 hr prior to LPS challenge and measured after 48 hrs; type: functional, organism-based; details: dose 2-50 mg/kg, time 49.0 hrs, DDE = dose-dependent effect
[16] = molecular target: T1, Dipeptidyl peptidase 1 (Mus musculus); assay: Inhibition of Cathepsin C in C57BL/6 mouse Bone marrow cells assessed as reduction of NSPs stability by measuring stability of cathepsin G at 1 uM treated for 12 hrs by Western blotting analysis; type: cell-based; design: scale not given: the % may be the effect or the level left; details: Bone marrow cell
[17] = AUC(0 to infinity) in Sprague-Dawley rat at 10 mg/kg, po by LC-MS/MS analysis; type: ADME, organism-based; design: time infinity, dose 10 mg/kg, route po; details: in vivo
[18] = molecular target: T2, Dipeptidyl peptidase 1 (Homo sapiens, UniProt P53634); assay: Inhibition of Cathepsin C in human THP-1 cells using H-Gly-Phe-AFC as substrate pretreated for 1 hr followed by substrate addition and incubated for 60 mins by microplate reader assay; type: cell-based
[19] = molecular target: T1, Dipeptidyl peptidase 1 (Mus musculus); assay: Inhibition of Cathepsin C in C57BL/6 mouse Bone marrow cells assessed as reduction of NSPs stability by measuring stability of neutrophil elastase at 1 uM treated for 48 hrs by Western blotting analysis; type: cell-based; design: scale not given: the % may be the effect or the level left; details: Bone marrow cell
[20] = Acute toxicity in ICR mouse assessed as mortality at 1500 mg/kg, po administered as single dose and measured for 7 days; type: organism-based; details: in vivo, time 7 day
[21] = molecular target: T2, Dipeptidyl peptidase 1; assay: Binding affinity to Cathepsin C in human U-937 cells assessed as increase in thermal stability at 10 uM measured from 46 to 52 degC after 4 hrs by cellular thermal shift assay; type: cell-based
[22] = tested on: Mus musculus; assay: In vivo inhibition of cathepsin C in po dosed LPS-induced ALI C57BL/6 mouse model assessed as downregulation of PR3 activity in blood treated 1 hr prior to LPS challenge and measured after 48 hrs; type: functional, organism-based; details: dose 2-50 mg/kg, time 49.0 hrs, DDE = dose-dependent effect
[23] = tested on: Mus musculus; assay: In vivo inhibition of cathepsin C in po dosed LPS-induced ALI C57BL/6 mouse model assessed as downregulation of neutrophil elastase activity in blood treated 1 hr prior to LPS challenge and measured after 48 hrs; type: functional, organism-based; details: dose 2-50 mg/kg, time 49.0 hrs, DDE = dose-dependent effect
[24] = molecular target: T2, Dipeptidyl peptidase 1; assay: Inhibition of human recombinant Cathepsin C using H-Gly-Arg-AMC as substrate pretreated for 30 mins followed by substrate addition and incubated for 60 mins by microplate reader assay

T2 sequence (P53634 25-134 limits assumed): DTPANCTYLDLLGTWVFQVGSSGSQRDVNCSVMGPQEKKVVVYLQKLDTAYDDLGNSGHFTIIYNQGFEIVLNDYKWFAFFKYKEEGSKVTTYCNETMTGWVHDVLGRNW
T2 sequence (P53634 231-394 limits assumed): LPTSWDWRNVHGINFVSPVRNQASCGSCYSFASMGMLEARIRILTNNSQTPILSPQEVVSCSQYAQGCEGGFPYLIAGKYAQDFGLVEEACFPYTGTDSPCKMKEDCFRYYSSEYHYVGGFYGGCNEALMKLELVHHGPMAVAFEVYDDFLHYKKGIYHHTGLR
T2 sequence (P53634 395-463 limits assumed): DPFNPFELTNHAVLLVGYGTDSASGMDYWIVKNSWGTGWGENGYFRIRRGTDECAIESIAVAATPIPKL

For `CC(=O)Nc1cccc(Nc2nc(Nc3ccc(-c4ccsc4)cn3)ncc2Cl)c1`, which inhibition [1] is on record?
The inhibition was “Dde”.

What about the Activity [2] of the same molecule?
Its Activity is 95.6%.

And the Activity [3]?
Its Activity is 68.3%.

What about the inhibition [4] of the same molecule?
Its inhibition is “Dde”.

What about the Activity [5] of the same molecule?
The Activity was “Dde”.

What about the Activity [6] of the same molecule?
The Activity was 50.1%.

What about the Activity [7] of the same molecule?
Its Activity is “Dde”.

And the IC50 [8]?
Its IC50 is over 5000 nM.

And the Activity [9]?
The Activity was “Dde”.

What about the Activity [10] of the same molecule?
Its Activity is “Non-Toxic”.

And the Activity [11]?
Its Activity is 93.4%.

What about the Activity [12] of the same molecule?
The Activity was “Dde”.

What about the Cmax [13] of the same molecule?
The Cmax was 309 ng/mL.

And the Activity [14]?
Its Activity is “Dde”.

What about the Activity [15] of the same molecule?
Its Activity is “Dde”.

And the Activity [16]?
The Activity was 81.1%.

And the AUC [17]?
The AUC was 473.18 ng·h/mL.

What about the IC50 [18] of the same molecule?
The IC50 was 115 nM.

What about the Activity [19] of the same molecule?
The Activity was 46.1%.

And the Activity [20]?
The Activity was “Non-Toxic”.

What about the Activity [21] of the same molecule?
The Activity was “Active”.

And the inhibition [22]?
The inhibition was “Dde”.

What about the inhibition [23] of the same molecule?
Its inhibition is “Dde”.

And the IC50 [24]?
The IC50 was 59.9 nM.
